Results as given in patent US20230265151A1, “GIP/GLP1 CO-AGONIST COMPOUNDS” (priority 2020, published 2023).
Like-named read-outs stand apart in the source and are kept apart here.

How the values were obtained:
Assay type in all cases: cell-based
[1] = target: T1, hGIPR (Homo sapiens, UniProt P48546); experiment: Functional cAMP formation (HTRF) in HEK-293 clonal cells expressing hGIPR, 0.1% bovine casein, without or with 1.0% human serum albumin
T1 construct: expressed in transfected cells
T1 sequence (P48546 22-466): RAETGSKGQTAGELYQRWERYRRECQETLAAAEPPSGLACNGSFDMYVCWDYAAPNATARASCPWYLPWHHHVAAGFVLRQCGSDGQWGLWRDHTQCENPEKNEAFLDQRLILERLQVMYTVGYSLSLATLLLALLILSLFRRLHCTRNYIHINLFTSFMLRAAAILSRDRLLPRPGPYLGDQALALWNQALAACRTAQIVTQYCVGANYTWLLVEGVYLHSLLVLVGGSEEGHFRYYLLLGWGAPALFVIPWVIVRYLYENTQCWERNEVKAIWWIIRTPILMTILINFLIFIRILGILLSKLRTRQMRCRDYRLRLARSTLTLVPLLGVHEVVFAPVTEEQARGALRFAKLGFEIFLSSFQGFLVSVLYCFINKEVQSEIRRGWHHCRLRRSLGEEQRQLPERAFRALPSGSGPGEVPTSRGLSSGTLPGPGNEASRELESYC
Method in brief: (§1)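 Cells were stimulated with peptide for 30 min at 37° C, then lysed in buffer carrying cAMP-d2 and anti-cAMP Eu3+-cryptate for a competitive HTRF read after at least 60 min at room temperature. The 665/620 nm ratio was converted to nM cAMP against a standard curve.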

[2] = target: T2, hGCGR (Homo sapiens, UniProt P47871); experiment: Functional cAMP formation (HTRF) in HEK-293 clonal cells expressing hGCGR, 0.1% bovine casein, without or with 1.0% human serum albumin
T2 construct: expressed in transfected cells
Method in brief: as §1

[3] = target: hGLP-1R (Homo sapiens, UniProt P43220); experiment: Functional cAMP formation (HTRF) in HEK-293 clonal cells expressing hGLP-1R, 0.1% bovine casein, without or with 1.0% human serum albumin; design: expressed in transfected cells; conditions: for EC50: cAMP
Method in brief: as §1

[4] = hGCGR EC50, nM (SEM, n), cAMP, 37° C., 0.1% bovine casein (no human serum albumin), geometric mean
[5] = hGLP-1R EC50, nM (SEM, n), 37° C., 0.1% bovine casein (no human serum albumin), geometric mean
[6] = HEK293, 0.1% bovine casein and 1.0% human serum albumin, 37° C., percent of maximal response to GIP(1-42)NH2, read-out: hGIPR Emax, % ± SEM
[7] = 0.1% bovine casein and 1.0% human serum albumin, 37° C., geometric mean, read-out: hGCGR EC50, nM (SEM, n)

Chain of hGLP-1R (P43220 24-463): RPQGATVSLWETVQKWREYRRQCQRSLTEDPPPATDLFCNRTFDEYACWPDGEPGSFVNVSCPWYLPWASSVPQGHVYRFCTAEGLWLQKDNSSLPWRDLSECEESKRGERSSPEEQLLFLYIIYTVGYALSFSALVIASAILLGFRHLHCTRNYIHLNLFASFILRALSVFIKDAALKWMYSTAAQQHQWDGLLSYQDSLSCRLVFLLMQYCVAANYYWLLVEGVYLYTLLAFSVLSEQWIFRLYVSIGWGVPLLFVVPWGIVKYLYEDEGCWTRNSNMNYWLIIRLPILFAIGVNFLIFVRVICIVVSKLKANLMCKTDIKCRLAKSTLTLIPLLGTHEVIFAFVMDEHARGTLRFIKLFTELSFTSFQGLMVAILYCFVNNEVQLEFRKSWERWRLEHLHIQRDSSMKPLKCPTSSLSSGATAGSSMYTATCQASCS
T2 sequence (P47871 26-477): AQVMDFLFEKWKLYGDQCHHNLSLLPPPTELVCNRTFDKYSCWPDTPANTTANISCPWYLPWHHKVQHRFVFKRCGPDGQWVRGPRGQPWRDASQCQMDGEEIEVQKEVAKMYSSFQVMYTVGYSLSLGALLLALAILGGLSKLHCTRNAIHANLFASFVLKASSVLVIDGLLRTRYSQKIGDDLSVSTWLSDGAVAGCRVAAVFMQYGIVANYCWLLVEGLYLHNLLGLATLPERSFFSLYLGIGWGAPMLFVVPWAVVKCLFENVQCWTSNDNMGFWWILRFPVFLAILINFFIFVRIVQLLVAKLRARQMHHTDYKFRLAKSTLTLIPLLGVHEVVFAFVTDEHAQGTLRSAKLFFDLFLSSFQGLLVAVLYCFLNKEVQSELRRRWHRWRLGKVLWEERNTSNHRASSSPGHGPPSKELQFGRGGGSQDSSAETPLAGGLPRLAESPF

With `CC[C@H](C)[C@H](NC(=O)[C@H](CCCN)NC(=O)[C@H](CC(=O)O)NC(=O)[C@H](CC(C)C)NC(=O)[C@](C)(CC(C)C)NC(=O)[C@@H](NC(=O)C(C)(C)NC(=O)[C@H](Cc1ccc(O)cc1)NC(=O)[C@H](CC(=O)O)NC(=O)[C@H](CO)NC(=O)[C@@H](NC(=O)[C@](C)(Cc1ccccc1F)NC(=O)[C@@H](NC(=O)CNC(=O)[C@H](CCC(=O)O)NC(=O)C(C)(C)NC(=O)[C@@H](N)Cc1ccc(O)cc1)[C@@H](C)O)[C@@H](C)O)[C@@H](C)CC)C(=O)N[C@@H](C)C(=O)N[C@@H](CCC(N)=O)C(=O)NC(C)(C)C(=O)N[C@@H](CCCN)C(=O)N[C@@H](Cc1ccccc1)C(=O)N[C@H](C(=O)N[C@@H](CCCCNC(=O)COCCOCCNC(=O)COCCOCCNC(=O)CC[C@H](NC(=O)CCCCCCCCCOc1ccc(C(=O)O)cc1)C(=O)O)C(=O)N[C@@](C)(Cc1ccc(O)cc1)C(=O)N[C@@H](CC(C)C)C(=O)N[C@H](C(=O)N[C@@H](CCCCNC(=O)COCCOCCNC(=O)COCCOCCNC(=O)CC[C@H](NC(=O)CCCCCCCCCOc1ccc(C(=O)O)cc1)C(=O)O)C(=O)NCC(=O)NCC(=O)N1CCC[C@H]1C(=O)N[C@@H](CO)C(=O)N[C@@H](CO)C(=O)NCC(=O)N[C@@H](C)C(=O)N1CCC[C@H]1C(=O)N1CCC[C@H]1C(=O)N1CCC[C@H]1C(=O)N[C@@H](CO)C(N)=O)[C@@H](C)CC)[C@@H](C)CC` [Example 355] the Emax ([1]; HEK293, read-out: hGIPR Emax, % ± SEM, cAMP, 37° C., 0.1% bovine casein and 1.0% human serum albumin, percent of maximal response to GIP(1-42)NH2) was 86%, the EC50 ([1]; hGIPR EC50, nM (SEM, n), cAMP, 37° C., 0.1% bovine casein (no human serum albumin), geometric mean) was 0.0365 nM and the EC50 ([1]; hGIPR EC50, nM (SEM, n), cAMP, 37° C., 0.1% bovine casein and 1.0% human serum albumin, geometric mean (SEM, n)) was 1.81 nM. The EC50 [2, 4] was > 9950 nM, the EC50 ([2]; hGCGR EC50, nM (SEM, n), cAMP, 37° C., 0.1% bovine casein and 1.0% human serum albumin, geometric mean (SEM, n)) was > 9950 nM and the Emax ([3]; HEK293, read-out: hGLP-1R Emax, % ± SEM, cAMP, 37° C., 0.1% bovine casein and 1.0% human serum albumin, percent of maximal response to GLP-1(7-36)NH2) was 109%. The Emax ([3]; HEK293, read-out: hGLP-1R Emax, % ± SEM, cAMP, 37° C., 0.1% bovine casein, percent of maximal response to GLP-1(7-36)NH2, arithmetic mean) was 105%, the EC50 [3, 5] was 0.574 nM and the EC50 ([3]; hGLP-1R EC50, nM (SEM, n), 37° C., 0.1% bovine casein and 1.0% human serum albumin, geometric mean (SEM, n)) was 11.3 nM.
`CC[C@H](C)[C@H](NC(=O)[C@H](CC(C)C)NC(=O)[C@](C)(Cc1ccc(O)cc1)NC(=O)[C@@H](CCC(=O)O)NC(=O)[C@@H](NC(=O)[C@H](Cc1ccccc1)NC(=O)[C@H](CCCCNC(=O)COCCOCCNC(=O)COCCOCCNC(=O)CC[C@H](NC(=O)CCCCCCCCCOc1ccc(C(=O)O)cc1)C(=O)O)NC(=O)C(C)(C)NC(=O)[C@H](CCC(N)=O)NC(=O)[C@H](C)NC(=O)[C@H](CCCCNC(=O)COCCOCCNC(=O)COCCOCCNC(=O)CC[C@H](NC(=O)CCCCCCCCCOc1ccc(C(=O)O)cc1)C(=O)O)NC(=O)[C@H](CCCN)NC(=O)[C@H](CC(=O)O)NC(=O)[C@H](CC(C)C)NC(=O)[C@](C)(CC(C)C)NC(=O)[C@@H](NC(=O)[C@H](CO)NC(=O)[C@H](CCc1ccc(O)cc1)NC(=O)[C@H](CC(=O)O)NC(=O)[C@H](CO)NC(=O)[C@@H](NC(=O)[C@](C)(Cc1ccccc1F)NC(=O)[C@@H](NC(=O)CNC(=O)[C@H](CCC(=O)O)NC(=O)C(C)(C)NC(=O)[C@@H](N)Cc1ccc(O)cc1)[C@@H](C)O)[C@@H](C)O)[C@@H](C)CC)[C@@H](C)CC)C(=O)N[C@@H](CCC(=O)O)C(=O)NCC(=O)NCC(=O)N1CCC[C@H]1C(=O)N[C@@H](CO)C(=O)N[C@@H](CO)C(=O)NCC(=O)N[C@@H](C)C(=O)N1CCC[C@H]1C(=O)N1CCC[C@H]1C(=O)N1CCC[C@H]1C(=O)N[C@@H](CO)C(N)=O` [Example 320] was tested, and the Emax ([1]; HEK293, read-out: hGIPR Emax, % ± SEM, 0.1% bovine casein and 1.0% human serum albumin, 37° C., percent of maximal response to GIP(1-42)NH2) was 84.1%, the Emax ([1]; HEK293, read-out: hGIPR Emax, % ± SEM, cAMP, 37° C., 0.1% bovine casein, percent of maximal response to GIP(1-42)NH2, arithmetic mean) was 94.2% and the EC50 ([2]; hGCGR EC50, nM (SEM, n), 0.1% bovine casein and 1.0% human serum albumin, 37° C., geometric mean) was > 9950 nM. For the same compound, the EC50 [2, 4] was > 9950 nM and the EC50 [3, 5] was 0.246 nM.
Compound `CC[C@H](C)[C@H](NC(=O)[C@H](CC(C)C)NC(=O)[C@](C)(Cc1ccc(O)cc1)NC(=O)[C@@H](CCC(=O)O)NC(=O)[C@@H](NC(=O)[C@H](Cc1ccccc1)NC(=O)[C@H](CCC(=O)O)NC(=O)C(C)(C)NC(=O)[C@H](CCC(N)=O)NC(=O)[C@H](C)NC(=O)[C@H](CCCCNC(=O)COCCOCCNC(=O)COCCOCCNC(=O)CC[C@H](NC(=O)CCCCCCCCCCCCC(=O)O)C(=O)O)NC(=O)[C@H](CCCN)NC(=O)[C@H](CC(=O)O)NC(=O)[C@H](CC(C)C)NC(=O)[C@](C)(CC(C)C)NC(=O)[C@@H](NC(=O)[C@H](CO)NC(=O)C1(NC(=O)[C@H](CC(=O)O)NC(=O)[C@H](CO)NC(=O)[C@@H](NC(=O)[C@](C)(Cc2ccccc2F)NC(=O)[C@@H](NC(=O)CNC(=O)[C@H](CCC(=O)O)NC(=O)C(C)(C)NC(=O)[C@@H](N)Cc2ccc(O)cc2)[C@@H](C)O)[C@@H](C)O)CCC1)[C@@H](C)CC)[C@@H](C)CC)C(=O)N[C@@H](CCC(=O)O)C(=O)NCC(=O)NCC(=O)N[C@@H](CCCCNC(=O)COCCOCCNC(=O)COCCOCCNC(=O)CC[C@H](NC(=O)CCCCCCCCCCCCC(=O)O)C(=O)O)C(=O)N[C@@H](CO)C(=O)N[C@@H](CO)C(=O)NCC(=O)N[C@@H](C)C(=O)N1CCC[C@H]1C(=O)N1CCC[C@H]1C(=O)N1CCC[C@H]1C(=O)N[C@@H](CO)C(N)=O` [Example 95] has an EC50 ([1]; 0.1% bovine casein and 1.0% human serum albumin, 37° C., geometric mean, read-out: hGIPR EC50, nM (SEM, n)) of 4.68 nM, an Emax [1, 6] of 86.9% and an Emax ([1]; HEK293, percent of maximal response to GIP(1-42)NH2, 37° C., 0.1% bovine casein, arithmetic mean, read-out: hGIPR Emax, % ± SEM) of 97.3%. The EC50 [2, 7] was > 9950 nM, the EC50 ([2]; cAMP, incubated at 37° C., 0.1% bovine casein (no human serum albumin), geometric mean, read-out: hGCGR EC50, nM (SEM, n)) was > 9950 nM and the Emax ([3]; HEK293, 0.1% bovine casein and 1.0% human serum albumin, 37° C., percent of maximal response to GLP-1(7-36)NH2, read-out: hGLP-1R Emax, % ± SEM) was 84%. The Emax ([3]; HEK293, percent of maximal response to GLP-1(7-36)NH2, 37° C., 0.1% bovine casein, arithmetic mean, read-out: hGLP-1R Emax, % ± SEM) was 86.9%.
In the case of `CC[C@H](C)[C@H](NC(=O)[C@H](CC(C)C)NC(=O)[C@](C)(Cc1ccc(O)cc1)NC(=O)[C@@H](CCC(=O)O)NC(=O)[C@@H](NC(=O)[C@H](Cc1ccccc1)NC(=O)[C@H](CCCCNC(=O)COCCOCCNC(=O)COCCOCCNC(=O)CC[C@H](NC(=O)CCCCCCCCCCCCC(=O)O)C(=O)O)NC(=O)C(C)(C)NC(=O)[C@H](CCC(N)=O)NC(=O)[C@H](C)NC(=O)[C@H](CCCCNC(=O)COCCOCCNC(=O)COCCOCCNC(=O)CC[C@H](NC(=O)CCCCCCCCCCCCC(=O)O)C(=O)O)NC(=O)[C@H](CCCN)NC(=O)[C@H](CC(=O)O)NC(=O)[C@H](CC(C)C)NC(=O)[C@](C)(CC(C)C)NC(=O)[C@@H](NC(=O)C(C)(C)NC(=O)[C@@H](NC(=O)[C@H](CC(=O)O)NC(=O)[C@H](CO)NC(=O)[C@@H](NC(=O)[C@](C)(Cc1ccccc1F)NC(=O)[C@@H](NC(=O)CNC(=O)[C@H](CCC(=O)O)NC(=O)C(C)(C)NC(=O)[C@@H](N)Cc1ccc(O)cc1)[C@@H](C)O)[C@@H](C)O)C(C)C)[C@@H](C)CC)[C@@H](C)CC)C(=O)N[C@@H](CCC(=O)O)C(=O)NCC(=O)NCC(=O)N1CCC[C@H]1C(=O)N[C@@H](CO)C(=O)N[C@@H](CO)C(=O)NCC(=O)N[C@@H](C)C(=O)N1CCC[C@H]1C(=O)N1CCC[C@H]1C(=O)N1CCC[C@H]1C(=O)N[C@@H](CO)C(N)=O` [Example 318], the Emax [1, 6] is reported as 91.4%, the EC50 ([1]; cAMP, 37° C., 0.1% bovine casein (no human serum albumin), geometric mean, read-out: hGIPR EC50, nM (SEM, n)) is reported as 0.0402 nM and the EC50 [2, 7] is reported as > 9950 nM. For the same compound, the EC50 ([2]; cAMP, 37° C., 0.1% bovine casein (no human serum albumin), geometric mean, read-out: hGCGR EC50, nM (SEM, n)) was > 9950 nM and the EC50 ([3]; 37° C., 0.1% bovine casein (no human serum albumin), geometric mean, read-out: hGLP-1R EC50, nM (SEM, n)) was 0.219 nM.
